The results in this text go back to patent US20040162467A1, “Non-invasive transudate extraction” (priority 2001, published 2004).

Where “and” joins values, the source holds several entries; their conditions need not be identical. Equal entries are not always repeated.

Series [1] in a line: Flow rate effect on analyte extraction (electrosonophoresis exudate versus serum). To be noted: for Sonified off membrane*: membrane sonicated in water bath. It is filed as in vivo. As to the method: Using the methods above for transudate and serum extraction, an experiment was conducted to determine the effect of flow rates through the head on testosterone recovery. Table 5 sets out the results of the experiment.
In a series of experiments (15 measures per flow rate) flow rates were compared for collection of testosterone in exudate from electrosonophoresis compared to that concurrently measured in serum of the subjects.

Series [2] in a line: Concentrations in transdermal exudate collected by different formats from sheep, versus serum. As to the method:
(§1) Sodium lauryl sulfate (40%) and either a commercial ultrasound conductive gel (Aquasonic, Parker Lab., NJ 07004, USA) or a 10% ethanol gel (the two gels were alternated in use) are employed. These gels are designated SLS-UG and SLS-EG respectively herein. Collected SLS-UG and SLS-EG are assayed as for blood. Saliva was divided into two samples. The first sample is stored at −20° C. and assayed as for blood. The second sample is assayed at the time of experimentation using the apparatus and immunosensors described above.
Ten of these animals were used to develop the transdermal exudate collection technique. These 10 animals were penned as above, and a catheter inserted into the jugular vein using known techniques in the art. A mixture of sodium lauryl sulfate and either SLS-UG or SLS-EG was positioned onto the shaved area on the back of each animal. […] At the end of the hour, the remaining mix on the back was collected. The entire procedure was repeated three times. This mix was subject to assay (see below) for hormones and glucose content.
On the following day, one of the two gel mixes were rubbed on and, after 10 min, ultrasound (20 kHz, 10 W/cm^2, pulsed 5 s on/5 s off using an ITO Physiotherapy and rehabilitation unit, Tokyo 176-8605, Japan) applied for 1 min directly onto the mix. Ten minutes later, the mix was again collected and measured. This was then repeated with 2 min of the ultrasound application, and on a following day, the entire procedure repeated using the alternative gel mix on the shaved patch on the animal. Times greater than 2 min were not attempted due to potential risk of skin damage. Blood samples were collected at the time of ultrasound application and again at the time when the gel mix was also collected. The entire ultrasound procedure was then repeated on subsequent days with the addition of an application of a 9V electric field either side of the ultrasound head (in contact with skin).
On a separate day, in a further repeat of the above procedure; the collecting head (50) was positioned onto the ultrasound device. The ultrasound device was modified to ensure good coupling for use with the collecting head and delivery of needed parameters to the skin. The output of the device was reset to achieve the same energy and pulse delivery to the skin's surface as when the collecting head was not present, and the ultrasound device had been placed directly in contact with the gels (as described above). Three fluid flow rates into the collection chamber of the head were compared: 150, 300 and 600 μl/min. The effluent fluid was then assayed. On a final day, this was then repeated with the immunosensors positioned in the exit line from the chamber, with immunosensor measurement of the hormones made as has been described above.

A short description of series [3]: Trial of FIG. 1 device: blood levels versus ultrasound-extracted transudate levels. An excerpt: The device of shown in FIG. 1 has been trialed with four individuals. The device was assembled as set out above and was linked to a testosterone and ethanol detectors comprising a HPLC system and Electrochemical detector and a mass spectroscopy system. […] In turn, each subject placed their forearm on the device. The ultrasound generator was set to produce continuous pulsing, collimating ultrasonic energy at 1 MHz and 0.5 W/cm^2. The surface of delivery at the test site was approximately 5 cm^2. Collections were made from the skin surface of the forearm over a period of one minute. Blood samples were drawn simultaneously and analysed for comparison to the ultrasound samples.

Series [4] can be described thus: Patients recovering in intensive care: blood versus ultrasound (US) levels. The class given is in vivo, human. The note with it: one value per sample.
A short description of series [5]: Serum, transdermal and saliva samples from sheep before, during and after exercise. The note with it: for Saliva: 20-min saliva lag; for Exudate: transdermal. As to the method:
as §1
(§2) Student t tests, ANOVA or Wilcoxon test for paired samples are made as appropriate. Statistical significance is taken at P≦0.05 level. For analysis across the exercise stress, data is grouped into pre, during and post exercise values as actual sample times relative to the exercise for transdermal and blood obtained values. For pre, during and post exercise grouping of saliva samples, a 20-min lag was allowed relative to blood and transdermal values in sheep and a 30-min lag in human subjects.
In the remaining 10 sheep, experimentation took place on three separate days, each 3 days apart. On days of experimentation, animals were penned as above and the jugular vein of the animal was catheterised. Animals were left to rest for 50 min and then a single ultrasound application applied for 1 min as above. […] A series of electrosonophoresis collections were made concurrently with blood collection from the jugular vein, every 5 min for a further 1 h. Saliva samples were collected on every second blood sample (i.e. every 10 min). At completion of this time, a human shepherd, intermittently for 30 min, then ran the animals around a paddock. During this 30 min, each animal was briefly restrained manually and sampled on all three parameters every 10 min (i.e. three samples repeated three times). At the end of this period, animals were repenned and rested for 10 min, and a further saliva collection was made. Following this saliva collection for a further 1-h period, collection as above, prior to exercise, was repeated. In this manner for each animal, in each session, 27 blood and transdermal samples and 16 saliva samples were collected.

Series [6] in a line: Salivary cortisol during familiarization period. To be noted: sheep. It is filed as in vivo. As to the method: Twenty sheep (Romney cross ewes, 36-44 kg live weights) were farmed together as a flock for 14 days prior to experimentation. On each of these days, they were rounded up, penned, a patch on their backs (approximately 5 cm in diameter) shaved and SLS-UG or SLS-EG applied.
Two minutes later the electrosonophoresis device was placed briefly on this patch (not turned on). At the end of 1 h of penning saliva was collected using a plastic suction bulb positioned manually into the mouth of the sheep. In this manner the sheep were familiarized to the experimental procedure.

A short description of series [7]: Serum, transdermal and saliva samples from human subjects before, during and after exercise. The note with it: for Saliva: 30-min saliva lag. As to the method:
as §1, §2
Ten human volunteers (males aged 19-23, body weights 85-103 kg) were seated at 09:30 h. During the experiment, they were held at a room temperature of 20-22° C. An initial 1 min burst of ultrasound, as for the sheep (above), was made on the volar surface of the forearm, following application of SLS-EG mix. Ten minutes later, transdermal (electrosonophoresis) collection began from this site on this forearm, simultaneous to a venepuncture blood collection being made from the other. A saliva collection was then made, followed by a second, third and fourth saliva collection 20, 30 and 40 min after the blood sample. These measurements were repeated three times over 3 h (i.e. a total of three blood and transdermal samples and 12 saliva samples). In between each sampling series, subjects were allowed to walk around, eat lightly and drink water. Following this collection, the five volunteers exercised at moderate intensities, for 40 min (heart rates maintained in the range of 130-160 bpm) on a rowing machine, stopping briefly at 10, 20 and 30 min to give blood, transdermal and saliva samples. The subjects gave another set of samples at 40 min upon completion of rowing, then warmed down lightly with stretching exercises for a further 10 min and gave a further saliva sample at the end of this time. Two more saliva samples were collected at 60 and 70 min after exercise started. At the end of this time, sampling was repeated as above, prior to exercise, for a further 3 h. The entire procedure was repeated twice a week for 3 weeks (a total of six times). The distance rowed (m) represented the total work rate during the exercise.

Series [8] in a line: Procalcitonin/TNF alpha and IL 6 (measure of bacterial sepsis): serum versus transdermal. It is filed as in vivo.
Setting [9] is: sheep, SLS + 10% E + US 1 min + 9 V.
Setting [10] is: sheep, SLS + 10% E + US 1 min + 9 V + Collection Head.

`C[C@]12CC[C@H]3[C@@H](CCC4=CC(=O)CC[C@@]43C)[C@@H]1CC[C@@H]2O` [Testosterone, testosterone]: the Collected in exudate in series [1] (flow rate 50 μl/min) lay in the range of 0.05 to 0.09 ng/mL; in series [1] (flow rate 100 μl/min), 0.15 to 0.20 ng/mL; in series [1] (flow rate 150 μl/min) it was 0.2 to 0.3 ng/mL; in series [1] (flow rate 200 μl/min) it was 0.21 to 0.30 ng/mL; in series [1] (flow rate 300 μl/min), 0.12 to 0.17 ng/mL. The “Serum level at same time” value fell in the range of 1.9 to 2.5 ng/mL in series [1] (flow rate 50 μl/min); 2.0 to 2.4 ng/mL in series [1] (flow rate 100 μl/min); 1.9 to 2.6 ng/mL in series [1] (flow rate 150 μl/min); 2.0 to 3.01 ng/mL in series [1] (flow rate 200 μl/min); 1.9 to 2.8 ng/mL in series [1] (flow rate 300 μl/min). The “Sonified off membrane*” value in series [1] (flow rate 50 μl/min) lay in the range of 0.1 to 0.2 ng/mL; in series [1] (flow rate 100 μl/min) it was 0.05 to 0.07 ng/mL; in series [1] (flow rate 150 μl/min) it was 0.01 to 0.02 ng/mL; in series [1] (flow rate 200 μl/min), 0.01 to 0.02 ng/mL; in series [1] (flow rate 300 μl/min), 0.08 to 0.12 ng/mL. In addition, the Serum in series [2] (sheep, SLS + 10% E) was 0.9 ± 0.4 ng/mL; in series [2] (sheep, SLS + 10% E + US 1 min), 0.9 ± 0.3 ng/mL; in series [2] (setting [9]), 0.7 ± 0.6 ng/mL; in series [2] (setting [10]), 0.8 ± 0.6 ng/mL; in series [2] (sheep, SLS + UG) it was 1.1 ± 0.6 ng/mL. The Exudate was found to be 0.02 ± 0.005 ng/mL in series [2] (sheep, SLS + 10% E + US 1 min); 0.05 ± 0.02 ng/mL in series [2] (setting [9]); 0.11 ± 0.06 ng/mL in series [2] (setting [10]). In addition, the “Relative recovery (exudate vs serum)” value in series [2] (sheep, SLS + 10% E + US 1 min) is given as “(2%)”; in series [2] (setting [9]) it was “(7%)”; in series [2] (setting [10]), “(14%)”. In addition, the “Recovery as % of serum levels” value in series [2] (sheep, gel mix with addition of ultrasound application) turned out to be 2%. Moreover, in series [3] (day 1, 30 min following 1 hour training (aerobic) and oral 10% ethanol, one value per subject (1-4)), the “Blood level 1#” value was 3 ng/mL and 7 ng/mL and 9 ng/mL and 4 ng/mL. For the same molecule, in series [3] (day 1, 30 min following 1 hour training and oral 10% ethanol, forearm, 1 MHz, 0.5 W/cm^2, 1 min, one value per subject), the “Ultrasound level 1#” value is 2 ng/ml (2×) and 4 ng/ml and 7 ng/ml. In series [3] (repeat on day 3, forearm, 1 MHz, 0.5 W/cm^2, 1 min, one value per subject), the “Ultrasound level 2*” value is 4 ng/ml (2×) and 6 ng/ml and 3 ng/ml. For the same molecule, the “Blood level 2*” value in series [3] (repeat on day 3, one value per subject) is 5 ng/mL and 10 ng/mL and 8 ng/mL and 6 ng/mL.

In the case of `C[C@]12CCC(=O)C=C1CC[C@@H]1[C@@H]2[C@@H](O)C[C@@]2(C)[C@H]1CC[C@]2(O)C(=O)CO` [Cortisol, cortisol], in series [4], the “Cortisol US” value is 32.1 ng/mL and 37.4 ng/mL and 30.5 ng/mL and 39.7 ng/mL and 29.2 ng/mL and 36.4 ng/mL and 31.3 ng/mL and 45.9 ng/mL. Further, the Serum in series [5] (10 min Exercise) is 19.6 ± 5.1 ng/L; in series [5] (20 min Exercise), 27.8 ± 4.6 ng/L; in series [5] (30 min Exercise), 39.3 ± 7.4 ng/L; in series [5] (Postexercise), 18.3 ± 4.9 ng/L; in series [5] (Preexercise) it was 11.9 ± 4.7 ng/L; in series [7] (0 min Exercise) it was 29.5 ± 9.2 ng/L. In addition, the Serum stood at 7.08 ± 11.5 ng/L in series [7] (10 min Exercise); 91.3 ± 19.7 ng/L in series [7] (20 min Exercise); 115.7 ± 15.8 ng/L in series [7] (30 min Exercise); 109.4 ± 13.1 ng/L in series [7] (40 min Exercise); 49.6 ± 11.3 ng/L in series [7] (Postexercise); 22.7 ± 8.1 ng/L in series [7] (Preexercise). Moreover, the Saliva came to 1.51 ± 0.97 ng/L in series [5] (10 min Exercise); 2.35 ± 2.19 ng/L in series [5] (20 min Exercise); 2.44 ± 1.76 ng/L in series [5] (30 min Exercise); 1.34 ± 1.81 ng/L in series [5] (Postexercise); 1.07 ± 1.03 ng/L in series [5] (Preexercise); 2.79 ± 1.13 ng/L in series [7] (0 min Exercise). Also, the Saliva in series [7] (10 min Exercise) was found to be 8.01 ± 2.86 ng/L; in series [7] (20 min Exercise) it was 8.75 ± 4.31 ng/L; in series [7] (30 min Exercise), 10.04 ± 3.11 ng/L; in series [7] (40 min Exercise), 9.19 ± 3.76 ng/L; in series [7] (Postexercise), 4.02 ± 1.95 ng/L; in series [7] (Preexercise), 2.25 ± 1.04 ng/L. For the same molecule, the Exudate in series [5] (10 min Exercise) was 2.91 ± 0.83 ng/L; in series [5] (20 min Exercise) it was 3.92 ± 1.01 ng/L; in series [5] (Postexercise), 2.71 ± 0.55 ng/L; in series [5] (Preexercise), 1.71 ± 0.85 ng/L. For the same molecule, the “Recovery as % of serum levels” value in series [2] (in vivo) is 5%. Moreover, the values for the Salivary value in series [6] (Day 14) and in series [6] (first day) were 1.1 ± 0.9 ng/mL and 6.4 ± 1.2 ng/mL, respectively.

B1: Procalcitonin: measure of bacterial sepsis (protein, UniProt P01258 26-141, looked up)
pro-form: APFRSALESSPADPATLSEDEARLLLAALVQDYVQMKASELEQEQEREGSSLDSPRSKRCGNLSTCMLGTYTQDFNKFHTFPQTAIGVGAPGKKRDMSSDLERDHRPHVSMPQNAN
modifications: pro-form
notes: measure of bacterial sepsis
With B1, in series [8] (subject number 20), the Serum fell in the range of 0.5 to 15 ng/mL and the Transdermal lay in the range of 0.04 to 1.7 ng/mL. In series [8] (subject number 30), the Serum was 0.1 to 0.5 ng/mL and the Transdermal was 0.02 to 0.05 ng/mL.
